The values that follow come from publication PMC12677052, “Identification and rescue of congenital hyperinsulinism-associated ABCC8 mutations that impair KATP channel trafficking” (The Journal of Biological Chemistry, 2025).

Structures are written as SMILES.

Assay type in all cases: cell-based
For assay [1], the target named is T1, sulfonylurea receptor 1 (SUR1) (Homo sapiens, UniProt Q09428).
T1 construct: gene ABCC8; human FLAG-tagged SUR1 (f-SUR1) coexpressed with human Kir6.2 in COSm6 cells; with Kir6.2 (KCNJ11)
The experiment in a line: Rb+ efflux inhibition in cells after […] overnight treatment and washout.

Assay [2] deals with T2, sulfonylurea receptor 1 (SUR1) (Homo sapiens, UniProt Q09428, Y124F).
T2 construct: gene ABCC8; human FLAG-tagged SUR1 (f-SUR1) coexpressed with human Kir6.2 in COSm6 cells; with Kir6.2 (KCNJ11)
Kind of assay: inside-out patch-clamp dose-response. (In general: Patch clamp records ionic current or voltage across a cell membrane.)

Assay [3] has as its target T1, sulfonylurea receptor 1 (SUR1). The experiment in a line: inside-out patch-clamp dose-response.
Assay [4] has as its target T3, sulfonylurea receptor 1 (SUR1) (Homo sapiens, UniProt Q09428, W143R).
T3 construct: gene ABCC8; human FLAG-tagged SUR1 (f-SUR1) coexpressed with human Kir6.2 in COSm6 cells; with Kir6.2 (KCNJ11)
The experiment in a line: pharmacochaperone rescue in cells at […] (western blot, Rb+ efflux). (In general: In western blotting, separated proteins are transferred to a membrane and probed.)

T1 sequence (Q09428 whole entry): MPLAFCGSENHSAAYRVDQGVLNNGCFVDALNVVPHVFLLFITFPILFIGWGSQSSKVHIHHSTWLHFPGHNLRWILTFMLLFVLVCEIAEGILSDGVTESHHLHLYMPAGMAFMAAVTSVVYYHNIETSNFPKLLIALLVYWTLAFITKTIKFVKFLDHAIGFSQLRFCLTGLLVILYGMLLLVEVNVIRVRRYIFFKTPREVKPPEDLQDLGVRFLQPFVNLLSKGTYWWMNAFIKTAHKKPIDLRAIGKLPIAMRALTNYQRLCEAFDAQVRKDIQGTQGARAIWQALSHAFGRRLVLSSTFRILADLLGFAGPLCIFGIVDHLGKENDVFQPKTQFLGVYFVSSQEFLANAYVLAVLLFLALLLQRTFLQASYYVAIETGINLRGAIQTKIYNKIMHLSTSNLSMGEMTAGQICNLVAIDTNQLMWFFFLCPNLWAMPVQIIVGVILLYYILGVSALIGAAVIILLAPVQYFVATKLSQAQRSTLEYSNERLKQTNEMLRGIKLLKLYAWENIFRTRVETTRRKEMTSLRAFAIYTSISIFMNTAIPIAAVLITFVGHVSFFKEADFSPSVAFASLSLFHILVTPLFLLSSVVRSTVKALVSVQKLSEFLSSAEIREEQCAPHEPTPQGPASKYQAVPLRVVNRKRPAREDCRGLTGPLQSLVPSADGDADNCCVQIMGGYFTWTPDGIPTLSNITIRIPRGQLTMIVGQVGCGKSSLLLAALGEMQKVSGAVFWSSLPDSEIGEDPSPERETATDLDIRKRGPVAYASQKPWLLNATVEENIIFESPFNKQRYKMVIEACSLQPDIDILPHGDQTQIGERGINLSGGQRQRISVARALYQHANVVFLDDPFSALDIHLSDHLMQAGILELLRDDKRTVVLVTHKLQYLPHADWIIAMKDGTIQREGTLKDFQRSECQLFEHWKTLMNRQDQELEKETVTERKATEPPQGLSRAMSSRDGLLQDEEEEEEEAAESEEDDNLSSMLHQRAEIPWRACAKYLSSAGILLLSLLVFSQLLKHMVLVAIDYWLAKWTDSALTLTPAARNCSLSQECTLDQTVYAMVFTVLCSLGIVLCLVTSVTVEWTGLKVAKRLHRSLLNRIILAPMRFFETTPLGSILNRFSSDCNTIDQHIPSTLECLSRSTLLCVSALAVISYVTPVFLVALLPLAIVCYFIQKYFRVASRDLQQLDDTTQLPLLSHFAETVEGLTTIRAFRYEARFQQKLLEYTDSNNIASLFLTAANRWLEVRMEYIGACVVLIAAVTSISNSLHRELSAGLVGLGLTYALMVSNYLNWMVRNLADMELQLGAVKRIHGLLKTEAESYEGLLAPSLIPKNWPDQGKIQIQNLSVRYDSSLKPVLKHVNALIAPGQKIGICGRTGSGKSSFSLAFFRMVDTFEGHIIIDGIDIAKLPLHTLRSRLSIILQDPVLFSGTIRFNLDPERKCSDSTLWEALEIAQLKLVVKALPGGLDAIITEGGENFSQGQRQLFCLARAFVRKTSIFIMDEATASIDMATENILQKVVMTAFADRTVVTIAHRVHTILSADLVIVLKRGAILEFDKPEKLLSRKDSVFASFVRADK
T1 sequence (Q14654 whole entry partner): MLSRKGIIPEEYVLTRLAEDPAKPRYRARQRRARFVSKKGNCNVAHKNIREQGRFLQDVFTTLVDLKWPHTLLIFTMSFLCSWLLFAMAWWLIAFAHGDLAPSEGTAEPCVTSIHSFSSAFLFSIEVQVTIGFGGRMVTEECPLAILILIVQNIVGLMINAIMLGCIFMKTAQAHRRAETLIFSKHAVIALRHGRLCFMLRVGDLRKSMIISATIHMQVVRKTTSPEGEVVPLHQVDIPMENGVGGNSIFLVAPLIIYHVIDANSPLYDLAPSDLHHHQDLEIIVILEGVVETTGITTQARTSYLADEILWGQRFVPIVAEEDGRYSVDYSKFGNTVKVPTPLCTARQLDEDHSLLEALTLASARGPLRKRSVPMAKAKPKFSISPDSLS
T3 sequence (Q09428 whole entry W143R): as the sequence (Q09428 whole entry) above, with W143R counted along it
T3 sequence (Q14654 whole entry partner): as the sequence (Q14654 whole entry partner) above
T2 sequence (Q09428 whole entry Y124F): as the sequence (Q09428 whole entry) above, with Y124F counted along it
T2 sequence (Q14654 whole entry, further chain): as the sequence (Q14654 whole entry partner) above

Regarding `COc1ccc(Cl)cc1C(=O)NCCc1ccc(S(=O)(=O)NC(=O)NC2CCCCC2)cc1` [GBC, glibenclamide], the “Rb+ efflux inhibition in cells after 10 μM overnight treatment and washout” value in assay [1] is “This reduction is due to GBC inhibition of channels already present at the cell surface”.

Regarding `Nc1ncnc2c1ncn2[C@@H]1O[C@H](COP(=O)(O)OP(=O)(O)O)[C@@H](O)[C@H]1O` [MgADP], the EC50 in assay [2] is 224 ± 47.9 µM; in assay [3], 62.2 ± 18.8 µM. As to `CCCCNC(=O)NS(=O)(=O)c1ccc(C)cc1` [Tolb, tolbutamide], the “pharmacochaperone rescue in cells at 200 μM (western blot, Rb+ efflux)” value in assay [4] was “N32K, P133R, W143R, and Y230C mutations showed clear albeit variable response to the three pharmacochaperones”.

The term EC50 denotes the concentration needed to bring the measured effect to its halfway point. A lower EC50 goes with an effect from little substance.
